Source: ChEMBL document CHEMBL4385604, “Identification of Pyrrolo[2,3- d]pyrimidine-Based Derivatives as Potent and Orally Effective Fms-like Tyrosine Receptor Kinase 3 (FLT3) Inhibitors for Treating Acute Myelogenous Leukemia” (J Med Chem, 2019)

What was measured:
[1] = target: T1, Receptor-type tyrosine-protein kinase FLT3 (Homo sapiens, UniProt P36888)
T1 sequence (P36888 whole entry): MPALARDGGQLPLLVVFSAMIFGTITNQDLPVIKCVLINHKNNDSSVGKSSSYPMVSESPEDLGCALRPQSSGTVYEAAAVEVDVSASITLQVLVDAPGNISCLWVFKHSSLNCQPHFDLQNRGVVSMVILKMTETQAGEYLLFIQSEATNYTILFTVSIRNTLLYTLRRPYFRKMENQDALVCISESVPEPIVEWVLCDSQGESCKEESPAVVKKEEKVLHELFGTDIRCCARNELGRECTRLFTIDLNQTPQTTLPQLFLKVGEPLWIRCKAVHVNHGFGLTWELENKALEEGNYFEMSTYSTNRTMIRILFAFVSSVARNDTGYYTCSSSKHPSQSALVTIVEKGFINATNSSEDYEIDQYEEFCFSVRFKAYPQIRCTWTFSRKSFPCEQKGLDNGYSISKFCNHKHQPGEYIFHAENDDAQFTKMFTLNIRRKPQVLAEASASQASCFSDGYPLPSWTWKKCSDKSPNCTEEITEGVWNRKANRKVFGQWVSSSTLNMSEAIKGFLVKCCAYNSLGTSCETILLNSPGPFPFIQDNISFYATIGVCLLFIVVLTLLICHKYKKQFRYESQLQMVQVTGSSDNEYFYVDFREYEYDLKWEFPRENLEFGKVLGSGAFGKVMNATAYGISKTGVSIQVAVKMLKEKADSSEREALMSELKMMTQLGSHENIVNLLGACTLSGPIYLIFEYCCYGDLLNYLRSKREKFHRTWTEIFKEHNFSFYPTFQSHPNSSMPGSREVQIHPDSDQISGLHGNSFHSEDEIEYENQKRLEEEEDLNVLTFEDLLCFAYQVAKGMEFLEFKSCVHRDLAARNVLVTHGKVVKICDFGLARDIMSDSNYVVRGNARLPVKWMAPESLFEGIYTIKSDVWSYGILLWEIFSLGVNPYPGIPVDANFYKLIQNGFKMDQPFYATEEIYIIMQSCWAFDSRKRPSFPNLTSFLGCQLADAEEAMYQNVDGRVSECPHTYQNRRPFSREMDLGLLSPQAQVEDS

RS4-11 = experiment: Antiproliferative activity against human RS4:11 cells harboring wild-type FLT3 measured after 72 hrs by MTT assay; assay type: functional, cell-based; conditions: RS4-11, 72 h
HL-60 = experiment: Antiproliferative activity against human HL60 cells harboring wild-type FLT3 measured after 72 hrs by MTT assay; assay type: functional, cell-based; conditions: HL-60, 72 h
MV4-11 = experiment: cells; conditions: Homo sapiens, MV4-11, 72 h
Description: Antiproliferative activity against human MV4-11 cells harboring FLT3-ITD mutant measured after 72 hrs by MTT assay

MOLM-13 = experiment: cells; conditions: Homo sapiens, MOLM-13, 72 h
Description: Antiproliferative activity against human MOLM13 cells harboring FLT3-ITD mutant measured after 72 hrs by MTT assay

BaF3 [2] = experiment: cells; conditions: Mus musculus, BaF3, 72 h
Description: Antiproliferative activity against mouse BAF3 cells harboring FLT3-ITD mutant measured after 72 hrs by MTT assay

BaF3 [3] = experiment: cells; conditions: Mus musculus, BaF3, 72 h; remark: listed apart in the source
Description: Antiproliferative activity against mouse BAF3 cells harboring FLT3-ITD-F691L mutant measured after 72 hrs by MTT assay

BaF3 [4] = experiment: cells; conditions: Mus musculus, BaF3, 72 h; remark: listed apart in the source
Description: Antiproliferative activity against mouse BAF3 cells harboring FLT3-ITD-D835V mutant measured after 72 hrs by MTT assay

IC50 [1] | IC50 (RS4-11) | IC50 (HL-60) | IC50 (MV4-11) | IC50 (MOLM-13) | IC50 (BaF3 [2]) | IC50 (BaF3 [3]) | IC50 (BaF3 [4]) | SMILES
86 nM | > 1000 nM | > 1000 nM | 1.76 nM | 2.5 nM | 8.45 nM | 134 nM | 95.4 nM | CC(C)(C)c1cc(NC(=O)Nc2ccc(-c3cn(Cc4ccccc4)c4ncnc(N)c34)cc2)no1
51 nM | > 1000 nM | > 1000 nM | 3.22 nM | 1.45 nM | 5.41 nM | 50.2 nM | 84.4 nM | C=CCCn1cc(-c2ccc(NC(=O)Nc3cc(C(C)(C)C)on3)c(F)c2)c2c(N)ncnc21
6 nM | > 1000 nM | > 1000 nM | 0.376 nM | 0.52 nM | 1.6 nM | 19.6 nM | 24.6 nM | CC(C)(C)c1cc(NC(=O)Nc2ccc(-c3cn(CCC#N)c4ncnc(N)c34)cc2)no1
17 nM | > 1000 nM | > 1000 nM | 2.34 nM | 0.65 nM | 3.04 nM | 82.4 nM | 51.9 nM | C=CCn1cc(-c2ccc(NC(=O)Nc3cc(C(C)(C)C)on3)c(F)c2)c2c(N)ncnc21
34 nM | > 1000 nM | > 1000 nM | 2.18 nM | 1.43 nM | 5.69 nM | 209 nM | 112 nM | CCCCn1cc(-c2ccc(NC(=O)Nc3cc(C(C)(C)C)on3)cc2)c2c(N)ncnc21
38 nM | > 1000 nM | > 1000 nM | 1.75 nM | 1.06 nM | 4.92 nM | 91.8 nM | 176 nM | C=CCCn1cc(-c2ccc(NC(=O)Nc3cc(C(C)(C)C)on3)cc2)c2c(N)ncnc21
21 nM | > 1000 nM | > 1000 nM | 0.149 nM | 0.049 nM | 0.95 nM | 28.6 nM | 50.1 nM | COCCn1cc(-c2ccc(NC(=O)Nc3cc(C(C)(C)C)on3)cc2)c2c(N)ncnc21
17 nM | > 1000 nM | > 1000 nM | 0.152 nM | 0.134 nM | 1.62 nM | 85 nM | 170 nM | CN(C)CCn1cc(-c2ccc(NC(=O)Nc3cc(C(C)(C)C)on3)cc2)c2c(N)ncnc21
37 nM | > 1000 nM | > 1000 nM | 1.47 nM | 0.117 nM | 3.21 nM | 98.6 nM | 173 nM | CCOCCn1cc(-c2ccc(NC(=O)Nc3cc(C(C)(C)C)on3)cc2)c2c(N)ncnc21
64 nM | > 1000 nM | > 1000 nM | 5.84 nM | 2.05 nM | 8.65 nM | 148 nM | 361 nM | CCC#CCn1cc(-c2ccc(NC(=O)Nc3cc(C(C)(C)C)on3)cc2)c2c(N)ncnc21
15 nM | > 1000 nM | > 1000 nM | 0.403 nM | 0.736 nM | 2.72 nM | 72.1 nM | 41.5 nM | CCCn1cc(-c2ccc(NC(=O)Nc3cc(C(C)(C)C)on3)cc2)c2c(N)ncnc21
49 nM | > 1000 nM | > 1000 nM | 1.34 nM | 1.55 nM | 4.6 nM | 42.7 nM | 55.4 nM | CCOCCn1cc(-c2ccc(NC(=O)Nc3cc(C(C)(C)C)on3)c(F)c2)c2c(N)ncnc21
26 nM | > 1000 nM | > 1000 nM | 14.2 nM | 10.6 nM | 3.59 nM | 86 nM | 166 nM | CC(C)(C)c1cc(NC(=O)Nc2ccc(-c3cn(CCN4CCN(S(C)(=O)=O)CC4)c4ncnc(N)c34)cc2)no1
70 nM | > 1000 nM | > 1000 nM | 1.79 nM | 2.85 nM | 6.06 nM | 228 nM | 185 nM | C=CCCCCn1cc(-c2ccc(NC(=O)Nc3cc(C(C)(C)C)on3)cc2)c2c(N)ncnc21
7 nM | > 1000 nM | > 1000 nM | 0.476 nM | 0.144 nM | 0.92 nM | 28.5 nM | 23.1 nM | CCn1cc(-c2ccc(NC(=O)Nc3cc(C(C)(C)C)on3)cc2)c2c(N)ncnc21
9 nM | > 1000 nM | > 1000 nM | 1.75 nM | 2.56 nM | 8.67 nM | > 200 nM | 156 nM | CC(C)(C)c1cc(NC(=O)Nc2ccc(-c3cn(CCN4CCNCC4)c4ncnc(N)c34)cc2)no1
32 nM | > 1000 nM | > 1000 nM | 1.98 nM | 0.58 nM | 5.57 nM | 39.4 nM | 69.7 nM | COCCn1cc(-c2ccc(NC(=O)Nc3cc(C(C)(C)C)on3)c(F)c2)c2c(N)ncnc21
– | > 1000 nM | > 1000 nM | 2.54 nM | 4.43 nM | 8.95 nM | > 500 nM | 385 nM | CC(C)(C)OC(=O)N1CCN(CCn2cc(-c3ccc(NC(=O)Nc4cc(C(C)(C)C)on4)cc3)c3c(N)ncnc32)CC1
30 nM | > 1000 nM | > 1000 nM | 1.75 nM | 1.02 nM | 5.09 nM | 57.8 nM | 93.7 nM | C=C(C)Cn1cc(-c2ccc(NC(=O)Nc3cc(C(C)(C)C)on3)cc2)c2c(N)ncnc21
26 nM | > 1000 nM | > 1000 nM | 3.92 nM | 1.15 nM | 6.18 nM | 51.2 nM | 86.4 nM | CC#CCn1cc(-c2ccc(NC(=O)Nc3cc(C(C)(C)C)on3)cc2)c2c(N)ncnc21
32 nM | > 1000 nM | > 1000 nM | 2.16 nM | 1.51 nM | 7.25 nM | 90.9 nM | 36.8 nM | CC(C)(C)c1cc(NC(=O)Nc2ccc(-c3cn(C4CCCC4)c4ncnc(N)c34)cc2)no1
46 nM | > 1000 nM | > 1000 nM | 0.434 nM | 0.389 nM | 2.48 nM | 16.1 nM | 102 nM | C#CCn1cc(-c2ccc(NC(=O)Nc3cc(C(C)(C)C)on3)c(F)c2)c2c(N)ncnc21
105 nM | > 1000 nM | > 1000 nM | 5.13 nM | 3.77 nM | 20.7 nM | 253 nM | 187 nM | CCCCCCn1cc(-c2ccc(NC(=O)Nc3cc(C(C)(C)C)on3)cc2)c2c(N)ncnc21
19 nM | > 1000 nM | > 1000 nM | 0.422 nM | 0.73 nM | 1.27 nM | 9.84 nM | 86.7 nM | CC(C)(C)c1cc(NC(=O)Nc2ccc(-c3cn(CC#N)c4ncnc(N)c34)cc2F)no1
69 nM | > 1000 nM | > 1000 nM | 2.94 nM | 2.22 nM | 5.95 nM | 200 nM | 140 nM | C=CCCCn1cc(-c2ccc(NC(=O)Nc3cc(C(C)(C)C)on3)cc2)c2c(N)ncnc21
